Where “and” joins values, the source holds several entries; their conditions need not be identical. Equal values may be shown once. Read-outs that look alike come from different tables or passages of the source.
Tests used:
BTK [1] = molecular target: BTK (Homo sapiens, UniProt Q06187); assay: BTK remaining in TMD8 WT mouse xenograft study; assay type: in vivo; design: from tissue; host or cells: TMD8 xenograft in CB.17 SCID mice; details: PO, 30 mg/kg, QD, 21 days of dosing
Source text: Efficacy in Mouse Xenograft Models
(§1) This example examines the activity of various BTK CTMs in relevant disease models, including the WT and C481S TMD8 model, which models B cell malignancies with/without inhibitor-driven BTK mutations at C481.

BTK C481S = BTK C481S (Homo sapiens, UniProt Q06187, C481S); assay: BTK degradation (Total BTK HTRF) in TMD8 cells expressing BTK-C481S; assay type: cell-based; design: endogenous in cells; host or cells: TMD8 BTK-C481S (clone2C3), Cas9 RNP knock-in; details: TMD8 BTK-C481S (clone2C3) cells, treatment time 4 h
Protocol: BTK levels were determined using Cisbio Total-BTK HTRF (Homologous Time-Resolved Fluorescence) kit (63ADK064PEG) according to the manufacturer's protocol. Briefly, cells were incubated in 1× supplied lysis buffer for 30 minutes. In an opaque white low volume 96-well plate (Cisbio, 66PL96005), cell lysate was combined with two different specific BTK antibodies, one conjugated with Eu^3+-Cryptate FRET donor and one conjugated with d2 FRET acceptor. Assay controls include wells containing cell lysate with only the Eu^3+-Cryptate FRET donor antibody and wells containing both HTRF antibodies and lysis buffer without cells or control lysate provided by Cisbio. HTRF ratio was calculated as (acceptor signal at 665 nm/donor signal at 620 nm)×10^4. Background HTRF levels were determined from the control well containing the donor, but no acceptor, antibody. Background HTRF levels were subtracted from all samples. Readouts were reported as HTRF levels relative to HTRF levels of DMSO-treated cells. Four-parameter non-linear regressions were performed in GraphPad Prism 7.02 to obtain DC50 values.
BTK Degradation (Total BTK HTRF) at Four Hours in TMD8 Cells Expressing BTK-C481S
This example evaluates the potency of CTM in degrading […]. The BTK binding moieties utilized in CTMs bind to the BTK active site. This example evaluates whether the active site mutation C481S affects CTM-induced degradation of BTK.

TMD8 tumor cells = assay: TMD8 xenograft efficacy study (wild-type BTK); assay type: in vivo, mouse; details: TMD8 WT, PO, 30 mg/kg, QD, 21 days of dosing
Protocol: […] Tumor growth inhibition (% TGI) were calculated on the final day of measurement using the equation [1−(T−T0/C−T0)]×100, where T and C represent the mean size of tumors in the treated (T) and control (C) groups, and T0 refers to the tumor size at randomization.
as §1

primary human T cells [2] = assay: T cell activation assay, IL-2 secretion (ELISA); assay type: cell-based
Protocol: (§2) This example evaluates whether CTMs with IMiD activity affect T cell activation. […] These assays were performed to assess whether BTK CTMs with and without IMiD activity affected activation of primary human T cells after stimulation of the T cell receptor with anti-CD3/ati-CD28 stimulation. T cell activation was measured by IL-2 secretion (ELISA assay) and upregulation of activation markers CD25 and CD69 on the surface of T cells (flow cytometry). Data are presented as the fold-change of response relative to baseline (stimulation with anti-CD3/anti-CD28 stimulation in the absence of compound).

TMD8 cells = assay: Cell viability assay (CellTiter-Glo), TMD8 cells; details: for EC50: Homo sapiens, TMD8, 72 h; for EMAX (% viable cells): TMD8 cells, treatment time 72 h
TMD8 C481S cells = assay: Cell viability assay (CellTiter-Glo), TMD8 C481S cells; details: for EC50: Homo sapiens, TMD8, 72 h; for EMAX (% viable cells): TMD8 C481S cells, treatment time 72 h
primary human T cells [3] = assay: T cell activation assay, CD25 and CD69 staining (flow cytometry); assay type: cell-based; details: fold-change of response relative to baseline
Protocol: as §2

[4] = PK data for BTK CTMs (in vivo plasma concentrations); details: for Vd: read-out: Volume of Distribution
Source text: The present example evaluates in vivo plasma concentrations of BTK CTMs to develop PK-PD-efficacy relationship and predict human exposure.

BTK [5] = molecular target: T1, BTK (Mus musculus, UniProt P35991); assay: In vivo degradation of BTK in mouse PD experiments with oral dosing
T1 construct: from tissue; host or cells: mouse blood B cells / splenocytes (CD-1 or BALB/c)
In short: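 BTK in blood or splenocytes read by flow cytometry (or HTRF), degradation taken as B-cell minus T-cell BTK MFI versus vehicle. Mice (CD-1 or BALB/c) received compound orally, initially 90 mg/kg for 6 h, then lower doses and longer time points.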

Rec-1 cells = assay: Cell viability assay (CellTiter-Glo), Rec-1 cells; assay type: cell-based
Source text: (§3) This example evaluates effects of CTM-mediated degradation on cell viability. […] Mino and Rec-1 are models of Mantle Cell Lymphoma, which is sensitive to IMiDs.

Mino cells = assay: Cell viability assay (CellTiter-Glo), Mino cells; assay type: cell-based; details: Mino cells, treatment time 72 h
Source text: as §3

[6] = 1.4 nM, fold-change of response relative to baseline
[7] = 37 nM, fold-change of response relative to baseline
[8] = 333 nM, fold-change of response relative to baseline (stimulation without compound)
[9] = Rat Sprague-Dawley, 10 mg/kg PO
[10] = oral dose 3 mg/kg, 24 h, blood, flow cytometry

Row | Structure (SMILES) | BTK Remaining (% relative to vehicle) (BTK [1]) | DC50 (BTK C481S) | Tumor Growth Inhibition (relative to vehicle) (TMD8 tumor cells) | IL-2 Secretion Anti-CD3/Anti-CD28 Stimulation (primary human T cells [2]; [6]) | IL-2 Secretion Anti-CD3/Anti-CD28 Stimulation (primary human T cells [2]; [7]) | IL-2 Secretion Anti-CD3/Anti-CD28 Stimulation (primary human T cells [2]; [8]) | EC50 (TMD8 cells) | EMAX (% viable cells) (TMD8 cells) | EC50 (TMD8 C481S cells) | EMAX (% viable cells) (TMD8 C481S cells) | CD25 Staining Anti-CD3/Anti-CD28 Stimulation (primary human T cells [3]; 1.4 nM) | CD69 Staining Anti-CD3/Anti-CD28 Stimulation (primary human T cells [3]; 1.4 nM) | CD25 Staining Anti-CD3/Anti-CD28 Stimulation (primary human T cells [3]; 37 nM) | CD69 Staining Anti-CD3/Anti-CD28 Stimulation (primary human T cells [3]; 37 nM) | CD25 Staining Anti-CD3/Anti-CD28 Stimulation (primary human T cells [3]; 333 nM) | CD69 Staining Anti-CD3/Anti-CD28 Stimulation (primary human T cells [3]; 333 nM) | AUC ([4]; Mouse Balb/c, 1 mg/kg IV) | clearance ([4]; Mouse Balb/c, 1 mg/kg IV) | Vd ([4]; Mouse Balb/c, 1 mg/kg IV) | AUC ([4]; Mouse Balb/c, 30 mg/kg PO) | further results
1 | CN1CCN([C@@H]2CCCN(c3cnc(C(N)=O)c(Nc4ccc(C5CCN(C6CN(c7ccc8c(c7)C(=O)N(C7CCC(=O)NC7=O)C8=O)C6)CC5)cc4)n3)C2)C1=O (stereo partly drawn) [Compound 53] | 19% | 8 nM | 27% | 1.22 | 2.08 | 2.53 | 2.24 nM | 16% | 16.1 nM | 24% | 1.09 | 1.06 | 1.14 | 1.07 | 0.84 | 0.83 | 2.75 µM·h | 7.5 mL/min/kg | 0.88 L/kg | 96 µM·h | bioavailability ([4]; Mouse Balb/c, 30 mg/kg PO): 113%; AUC ([4]; Rat Sprague-Dawley, 1 mg/kg IV): 0.31 µM·h; clearance ([4]; Rat Sprague-Dawley, 1 mg/kg IV): 75 mL/min/kg; Vd ([4]; Rat Sprague-Dawley, 1 mg/kg IV): 5.9 L/kg; AUC [4, 9]: 2.3 µM·h; bioavailability [4, 9]: 97%; % BTK Remaining (BTK [5]; oral dose 3 mg/kg, 6 h, blood, flow cytometry): 35%; % BTK Remaining (BTK [5]; [10]): 56%
2 | CN1CCN([C@@H]2CCCN(c3cnc(C(N)=O)c(Nc4ccc(N5CCC6(CC5)CCN(c5ccc7c(c5)C(=O)N(C5CCC(=O)NC5=O)C7=O)CC6)cc4)n3)C2)C1=O (stereo partly drawn) [Compound 55] | 27% | 5.8 nM | 17% | – | – | – | 2.4 nM | 15% | 16.8 nM | 19% | – | – | – | – | – | – | 8.64 µM·h | 2.4 mL/min/kg | 0.48 L/kg | 74.3 µM·h | bioavailability ([4]; Mouse Balb/c, 30 mg/kg PO): 29%; % BTK Remaining (BTK [5]; oral dose 0.3 mg/kg, 24 h, blood, flow cytometry): 83%; % BTK Remaining (BTK [5]; oral dose 0.3 mg/kg, 24 h, splenocytes, flow cytometry): 114%; % BTK Remaining (BTK [5]; oral dose 1 mg/kg, 6 h, splenocytes, HTRF, 1 mg/kg): 80% and 66%; % BTK Remaining (BTK [5]; oral dose 3 mg/kg, 6 h, splenocytes, HTRF): 18%; % BTK Remaining (BTK [5]; [10]): 55%; % BTK Remaining (BTK [5]; oral dose 3 mg/kg, 24 h, splenocytes, flow cytometry): 72%; % BTK Remaining (BTK [5]; oral dose 10 mg/kg, 24 h, blood, flow cytometry): 47%; % BTK Remaining (BTK [5]; oral dose 10 mg/kg, 24 h, splenocytes, flow cytometry): 45%; % BTK Remaining (BTK [5]; oral dose 30 mg/kg, 24 h, blood, flow cytometry): 39%; % BTK Remaining (BTK [5]; oral dose 30 mg/kg, 24 h, splenocytes, flow cytometry): 36%; % BTK Remaining (BTK [5]; oral dose 90 mg/kg, 24 h, blood, flow cytometry): 23%; % BTK Remaining (BTK [5]; oral dose 90 mg/kg, 24 h, splenocytes, flow cytometry): 48%
3 | C=CC(=O)N1CCC[C@@H](n2nc(-c3ccc(Oc4ccccc4)cc3)c3c(N)ncnc32)C1 [Ibrutinib, reference compound] | – | – | – | 0.84 | 0.85 | 0.34 | 3 nM | 16% | 1040 nM | 46% | 0.92 | 0.89 | 0.74 | 0.74 | 0.22 | 0.22 | – | – | – | – | EC50 (Rec-1 cells; Homo sapiens, Rec1, treatment time 72 h): 268 nM; EMAX (% viable cells) (Rec-1 cells; treatment time 72 h): 68%; EC50 (Mino cells; Homo sapiens): 498 nM; EMAX (% viable cells) (Mino cells): 79%

— patent US12600732B2, “Bifunctional compounds for degrading BTK via ubiquitin proteosome pathway” (NURIX THERAPEUTICS, INC., priority 2019, dated 2026)
